Here are results for 2 molecules from US11020405B2, “Method for prevention or treatment of diabetic complications” (KANGWON NATIONAL UNIVERSITY UNIVERSITY-INDUSTRY COOPERATION …, priority 2017, dated 2021).

For assay [1], the system named is human retinal endothelial cells (HRECs). The assay can be described thus: Identification of receptor of midazolam through ROS concentration analysis. As to conditions: 0-50 μM flumazenil or 0-30 μM PK11195 1 hr, then 20 μM midazolam 30 min, then 10 ng/ml VEGF (FIG. 10B). It counts as cell-based. The protocol:
With reference to FIG. 10A, the HRECs of Test Example 1 were subjected to the respective treatments below, cultured for 10 min, treated with 10 μM H2DCFDA, stained for 10 min in a phenol-red-free low-serum medium, and measured using confocal microscopy to thus determine the fluorescence intensity of single cells.
(§1) As will be described below, flumazenil was used as a GABAA receptor antagonist and PK11195 was used as a TSOP receptor antagonist.
With reference to FIG. 10B, the HRECs of Test Example 1 were treated with 0 μM, 0.01 μM, 0.1 μM, 1 μM, 10 μM, 20 μM, and 50 μM flumazenil and 0 μM, 0.01 μM, 0.1 μM, 1 μM, 3 μM, 10 μM, and 30 μM PK11195, cultured for 1 hr, treated with 20 μM midazolam, cultured for 30 min, treated with 10 ng/ml VEGF, incubated for 10 min, treated with 10 μM H2DCFDA, stained for 10 min in a phenol-red-free low-serum medium, and then measured using confocal microscopy to thus determine the fluorescence intensity of single cells.

The test system of assay [2] is TGase. The assay can be described thus: Identification of receptor of midazolam through TGase activity analysis. The assay is classed as cell-based, human. Particulars: HRECs, 0-50 μM flumazenil or 0-30 μM PK11195 1 hr, then 20 μM midazolam 30 min, then 10 ng/ml VEGF (FIG. 11B). The protocol:
With reference to FIG. 11A, the HRECs of Test Example 1 were subjected to the respective treatments below, cultured for 2 hr, treated with 1 mM 5-(biotinamido)pentylamine, incubated for 1 hr, fixed with 3.7% formaldehyde, treated with 0.2% triton X-100, treated with a blocking solution containing 138 mM NaCl, 0.1% Tween 20 and 2% BSA dissolved in a 20 mM Tris (pH 7.6) buffer, incubated for 30 min, incubated with FITC-conjugated streptavidin (1:200, v/v) for 1 hr, and then measured using confocal microscopy to thus determine the fluorescence intensity of single cells.
as §1
With reference to FIG. 11B, the HRECs of Test Example 1 were treated with 0 μM, 0.01 μM, 0.1 μM, 1 μM, 10 μM, 20 μM, and 50 μM flumazenil and 0 μM, 0.01 μM, 0.1 μM, 1 μM, 3 μM, 10 μM, and 30 μM PK11195, cultured for 1 hr, treated with 20 μM midazolam, cultured for 30 min, treated with 10 ng/ml VEGF, incubated for 10 min, treated with 1 mM 5-(biotinamido)pentylamine, incubated for 1 hr, fixed with 3.7% formaldehyde, treated with 0.2% triton X-100, treated with a blocking solution containing 138 mM NaCl, 0.1% Tween 20 and 2% BSA dissolved in a 20 mM Tris (pH 7.6) buffer, incubated for 30 min, incubated with FITC-conjugated streptavidin (1:200, v/v) for 1 hr, and then measured using confocal microscopy to thus determine the fluorescence intensity of single cells.

The test system of assay [3] is TGase. The assay can be described thus: Analysis of TGase activity in retinas of diabetic mouse model. It counts as in vivo, C57BL/6 mice. Particulars: intravitreal 3 μL of 0.4 mM flumazenil in two administrations and 2 μL of 2 mM midazolam, group excluded from those without significant increase. The protocol: 6-week-old male C57BL/6 mice (DBL, EumSeong, Korea) were administered with streptozotocin (Sigma-Aldrich) dissolved in a 100 mM citrate buffer (pH 4.5) through intraperitoneal injection in an amount of 150 mg each per kg of mouse weight to give diabetic mouse models. In the diabetic mouse models, the blood glucose level was 19 mM or more when not fasting, and polyuria and diabetes, considered signs of diabetes, were observed. […]
48 μL of 100 mM 5-(biotinamido)pentylamine was injected into the left ventricle of each of normal mice (Normal), midazolam-administered normal mice (Midazolam), diabetic mice (Diabetic), midazolam-administered diabetic mice (Diabetic+Midazolam), flumazenil- and midazolam-administered diabetic mice (Diabetic+flumazenil+Midazolam), cystamine-administered diabetic mice (Diabetic+cystamine) and MDC-administered diabetic mice (Diabetic+MDC) and circulated for 10 min, after which cervical dislocation was performed, and the eyeballs were extracted, fixed with 4% paraformaldehyde for 45 min, incised and subjected to permeation treatment for 30 min. The obtained retinal samples were incubated with a blocking solution for 30 min, treated with FITC-conjugated streptavidin (1:200, v/v), stained for 1 hr, and measured using confocal microscopy. […]

For assay [4], the system named is retinal vessels of diabetic mice. The assay can be described thus: Fluorescein angiography for mouse model (retinal vascular leakage). It counts as in vivo, C57BL/6 mice. Particulars: intravitreal 3 μL of 0.4 mM flumazenil in two administrations and 2 μL of 2 mM midazolam, group excluded from those without significant increase.

With `CCC(C)N(C)C(=O)c1cc2ccccc2c(-c2ccccc2Cl)n1` (stereo not drawn) [PK11195], in assay [1], the “ROS concentration in midazolam- and VEGF-treated cells after receptor antagonist” value is “no increase in ROS concentration, regardless of the PK11195 concentration”. Moreover, the “TGase activity in midazolam- and VEGF-treated cells after receptor antagonist” value with TGase [2] is “no increase in TGase activity, regardless of the PK11195 concentration”.

Take `CCOC(=O)c1ncn2c1CN(C)C(=O)c1cc(F)ccc1-2` [flumazenil]: the “ROS concentration in midazolam- and VEGF-treated cells after receptor antagonist” value in assay [1] is given as “an increase in ROS concentration with an increase in flumazenil concentration”. Also, in the assay with TGase [2], the “TGase activity in midazolam- and VEGF-treated cells after receptor antagonist” value is reported as “an increase in TGase activity with an increase in flumazenil concentration”. Further, the “TGase activity in retina compared to normal mice, flumazenil given with midazolam” value with TGase [3] was “excluding the diabetic mice (Diabetic) and the flumazenil- and midazolam-administered diabetic mice”. Moreover, in assay [4], the “retinal vascular leakage compared to normal mice, flumazenil given with midazolam” value is “excluding the diabetic mice (Diabetic) and the flumazenil- and midazolam-administered diabetic mice”.
